Our source for the IC50 values is patent publication US12473304B2, “Heterocyclic PAD4 inhibitors” (BRISTOL-MYERS SQUIBB COMPANY, priority 2020, dated 2025).

In the experiment the target is human PAD4 (hPAD4) (Homo sapiens (Human), UniProt Q9UM07). Nature of the experiment: RFMS Human PAD4 Functional Assay 1. The note with it: RFMS assay 1; 5 nM hPAD4, 250 μM BAEE substrate, 50 μM calcium, 37° C. It counts as biochemical. The method in brief:
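Recombinant hPAD4 (5 nM) was preincubated with compound (top 50 μM, 0.5% DMSO) for 30 min at 37 °C, then reacted with 250 μM BAEE for 90 min at 37 °C in pH 7.5 HEPES buffer with 50 μM calcium and 5 μM TPEN. Product was derivatized with phenyl glyoxal and quantified by RapidFire MS.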

Chain of human PAD4 (hPAD4) (Q9UM07 whole entry): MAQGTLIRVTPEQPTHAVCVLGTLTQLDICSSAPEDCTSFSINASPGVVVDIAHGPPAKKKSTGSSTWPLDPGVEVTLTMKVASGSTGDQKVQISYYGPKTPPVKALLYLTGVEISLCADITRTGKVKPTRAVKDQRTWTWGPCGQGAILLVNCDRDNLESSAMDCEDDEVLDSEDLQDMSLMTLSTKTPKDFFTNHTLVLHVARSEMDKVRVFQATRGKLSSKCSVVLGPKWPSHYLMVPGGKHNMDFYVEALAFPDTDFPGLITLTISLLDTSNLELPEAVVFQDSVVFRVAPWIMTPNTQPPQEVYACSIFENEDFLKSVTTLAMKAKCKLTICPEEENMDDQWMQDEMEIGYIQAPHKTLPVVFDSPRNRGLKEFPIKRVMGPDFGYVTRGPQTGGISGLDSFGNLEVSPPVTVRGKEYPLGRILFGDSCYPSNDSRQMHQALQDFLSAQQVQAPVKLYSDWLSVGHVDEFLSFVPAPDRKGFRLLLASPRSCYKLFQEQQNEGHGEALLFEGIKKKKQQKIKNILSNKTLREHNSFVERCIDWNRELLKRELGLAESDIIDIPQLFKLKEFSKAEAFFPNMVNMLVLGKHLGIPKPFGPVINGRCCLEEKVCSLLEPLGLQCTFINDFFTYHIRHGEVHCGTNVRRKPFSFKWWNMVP

On to `COc1cc(C(=O)N2CCC[C@@H](N)C2)cn2nc(-c3cc4ccc(-c5ccc(C(=O)N(C)C)cc5)cc4n3CC3CC3)c(C)c12` [Example 230, 4-(2-{6-[(3R)-3-Aminopiperidine-1-carbonyl]-4-methoxy-3-methylpyrazolo[1,5-a]pyridin-2-yl}-1-(cyclopropylmethyl)-1H-indol-6-yl)-N,N-dimethylbenzamide], for which the IC50 (commonly the point on the concentration scale where inhibition reaches its midpoint) came to 320 nM. With `Cc1c(-c2cc3cccc(C4CCN(C(=O)C(C)(C)CO)CC4)c3n2CC2CC2)nn2cc(C(=O)N3CCC[C@@H](N)C3)ccc12` [Example 434, (R)-1-(4-(2-(6-(3-aminopiperidine-1-carbonyl)-3-methylpyrazolo[1,5-a]pyridin-2-yl)-1-(cyclopropylmethyl)-1H-indol-7-yl)piperidin-1-yl)-3-hydroxy-2,2-dimethylpropan-1-one] the figure was 250 nM; with `Cc1c(-c2cc3ccc(-c4ccc(C(N)=O)c(F)c4)nc3n2CC2CC2)nn2cc(C(=O)N3CCC[C@@H](N)C3)cc(F)c12` [Example 279, 4-(2-{6-[(3R)-3-Aminopiperidine-1-carbonyl]-4-fluoro-3-methylpyrazolo[1,5-a]pyridin-2-yl}-1-(cyclopropylmethyl)-1H-pyrrolo[2,3-b]pyridin-6-yl)-2-fluorobenzamide], 200 nM. Next, `Cc1c(-c2cc3ccc(-c4cccc(O)c4Cl)nc3n2CC2CC2)nn2cc(C(=O)N3CCC[C@@H](N)C3)ccc12` [Example 313, 3-(2-{6-[(3R)-3-Aminopiperidine-1-carbonyl]-3-methylpyrazolo[1,5-a]pyridin-2-yl}-1-(cyclopropylmethyl)-1H-pyrrolo[2,3-b]pyridin-6-yl)-2-chlorophenol]: 100 nM; `Cc1c(-c2cc3ccc(C(C)(O)C4CC4)nc3n2CC2CC2)nn2cc(C(=O)N3CC4CCC3[C@@H]4N)cc(F)c12` (stereo partly drawn) [Example 384, 1-(2-{6-[(7R)-7-Amino-2-azabicyclo[2.2.1]heptane-2-carbonyl]-4-fluoro-3-methylpyrazolo[1,5-a]pyridin-2-yl}-1-(cyclopropylmethyl)-1H-pyrrolo[2,3-b]pyridin-6-yl)-1-cyclopropylethan-1-ol]: 200 nM. Take `COc1cc(C(=O)N2CCC[C@@H](N)C2)cn2nc(-c3cc4ccnc(OCC5CNC(=O)C5)c4n3CC3CC3)c(C)c12` (single isomer, unassigned; isomer 1) [Example 591]: the IC50 was determined as 30 nM. Next, `COc1cc(C(=O)N2C[C@H](N)C[C@@H](F)C2)cn2nc(-c3cc4cccc(C5CCN(C(=O)C6CCCCO6)CC5)c4n3CC3CC3)c(C)c12` (single isomer, unassigned) [Example 389]: 30 nM; `COc1cc(C(=O)N2C[C@H](N)C[C@@H](F)C2)cn2nc(-c3cc4cccc(OCC5CNC(=O)C5)c4n3CC3CC3)c(C)c12` (single isomer, unassigned) [Example 563]: 70 nM. Next, `Cc1c(-c2cc3cccc(C4CCN(C(=O)CCO)CC4)c3n2CC2CC2)nn2cc(C(=O)N3C[C@H](N)C[C@@H](F)C3)ccc12` [Example 430, 1-(4-(2-(6-((3R,5R)-3-amino-5-fluoropiperidine-1-carbonyl)-3-methylpyrazolo[1,5-a]pyridin-2-yl)-1-(cyclopropylmethyl)-1H-indol-7-yl)piperidin-1-yl)-3-hydroxypropan-1-one]: 80 nM.

Take `COc1cc(C(=O)N2CC3CCC2[C@@H]3N)cn2nc(-c3cc4ccc(C)cc4n3CC3CC3)c(C)c12` (stereo partly drawn) [Example 27, ((7R)-7-Amino-2-azabicyclo[2.2.1]heptan-2-yl)(2-(1-(cyclopropylmethyl)-6-methyl-1H-indol-2-yl)-4-methoxy-3-methylpyrazolo[1,5-a]pyridin-6-yl)methanone]: the IC50 was 22 nM. Regarding `COCC(=O)N1CCC(c2cc(F)cc3cc(-c4nn5cc(C(=O)N6CCC[C@@H](N)C6)cc(OC)c5c4C)n(CC4CC4)c23)CC1` [Example 480, (R)-1-(4-(2-(6-(3-aminopiperidine-1-carbonyl)-4-methoxy-3-methylpyrazolo[1,5-a]pyridin-2-yl)-1-(cyclopropylmethyl)-5-fluoro-1H-indol-7-yl)piperidin-1-yl)-2-Methoxyethan-1-one], the IC50 was found to be 140 nM. With `Cc1c(-c2cc3cc(F)cc(C4CCN(C(=O)[C@H]5CC[C@H](O)CC5)CC4)c3n2CC2CC2)nn2cc(C(=O)N3CCC[C@@H](N)C3)ccc12` [Example 484, ((R)-3-Aminopiperidin-1-yl)(2-(1-(cyclopropylmethyl)-5-fluoro-7-(1-((1r,4r)-4-hydroxycyclohexane-1-carbonyl)piperidin-4-yl)-1H-indol-2-yl)-3-methylpyrazolo[1,5-a]pyridin-6-yl)methanone] the figure was 150 nM. With `COc1cc(C(=O)N2CC3CCC2[C@@H]3N)cn2nc(-c3cc4ccc(C)nc4n3CC3CC3)c(C)c12` (stereo partly drawn) [Example 4, ((7R)-7-Amino-2-azabicyclo[2.2.1]heptan-2-yl)(2-(1-(cyclopropylmethyl)-6-methyl-1H-pyrrolo[2,3-b]pyridin-2-yl)-4-methoxy-3-methylpyrazolo[1,5-a]pyridin-6-yl)methanone] the figure was 68 nM; with `COC(=O)N1CCC(c2cccc3cc(-c4nn5cc(C(=O)N6CCC[C@@H](N)C6)ccc5c4C)n(CC4CC4)c23)CC1` [Example 468, Methyl (R)-4-(2-(6-(3-aminopiperidine-1-carbonyl)-3-methylpyrazolo[1,5-a]pyridin-2-yl)-1-(cyclopropylmethyl)-1H-indol-7-yl)piperidine-1-carboxylate], 100 nM; with `COc1cc(C(=O)N2CC3CCC2[C@@H]3N)cc2sc(-c3cc4ccc(-c5ccc(C(N)=O)c(Cl)c5)cc4n3CC3CC3)c(C)c12` (stereo partly drawn) [Example 125, 4-(2-(6-((7R)-7-Amino-2-azabicyclo[2.2.1]heptane-2-carbonyl)-4-methoxy-3-methylbenzo[b]thiophen-2-yl)-1-(cyclopropylmethyl)-1H-indol-6-yl)-2-chlorobenzamide], 413 nM. With `Cc1c(-c2cc3ccc(N4CCC(C(=O)N5CCCC5)CC4)cc3n2CC2CC2)nn2cc(C(=O)N3C[C@H](N)C[C@@H](F)C3)ccc12` [Example 355, (3R,5R)-1-{2-[1-(Cyclopropylmethyl)-6-[4-(pyrrolidine-1-carbonyl)piperidin-1-yl]-1H-indol-2-yl]-3-methylpyrazolo[1,5-a]pyridine-6-carbonyl}-5-fluoropiperidin-3-amine] the figure was 20 nM; with `COc1cc(C(=O)N2C[C@H](N)C[C@@H](F)C2)cn2nc(-c3cc4ccc(-c5ccc6c(cnn6C)c5)cc4n3CC3CC3)c(C)c12` [Example 219, (3R,5R)-1-{2-[1-(Cyclopropylmethyl)-6-(1-methyl-1H-indazol-5-yl)-1H-indol-2-yl]-4-methoxy-3-methylpyrazolo[1,5-a]pyridine-6-carbonyl}-5-fluoropiperidin-3-amine], 460 nM; with `COc1cc(C(=O)N2C[C@H](N)C[C@@H](F)C2)cn2nc(-c3cc4ccc(-c5ccc(C(=O)N(C)C)cc5)cc4n3CC3CC3)c(C)c12` [Example 217, 4-(2-{6-[(3R,5R)-3-Amino-5-fluoropiperidine-1-carbonyl]-4-methoxy-3-methylpyrazolo[1,5-a]pyridin-2-yl}-1-(cyclopropylmethyl)-1H-indol-6-yl)-N,N-dimethylbenzamide], 260 nM. `Cc1c(-c2cc3cc(F)cc(C4CCN(C(=O)C5CCCO5)CC4)c3n2CC2CC2)nn2cc(C(=O)N3CCC[C@@H](N)C3)ccc12` (single isomer, unassigned) [Example 489]: the IC50 came out at 70 nM. Take `Cc1c(-c2cc3ccc(-c4cccc(O)c4F)cc3n2CC2CC2)oc2cc(C(=O)N3CC4CCC3[C@@H]4N)ccc12` (stereo partly drawn) [Example 181, ((7R)-7-Amino-2-azabicyclo[2.2.1]heptan-2-yl)(2-(1-(cyclopropylmethyl)-6-(2-fluoro-3-hydroxyphenyl)-1H-indol-2-yl)-3-methylbenzofuran-6-yl)methanone]: the IC50 was found to be 269 nM. Next, `Cc1c(-c2cc3ccc(-c4ccc(C(N)=O)c(Cl)c4)nc3n2CC2CC2)nn2cc(C(=O)N3C[C@H](N)C[C@@H](F)C3)ccc12` [Example 85, 4-(2-(6-((3R,5R)-3-Amino-5-fluoropiperidine-1-carbonyl)-3-methylpyrazolo[1,5-a]pyridin-2-yl)-1-(cyclopropylmethyl)-1H-pyrrolo[2,3-b]pyridin-6-yl)-2-chlorobenzamide]: 327 nM; `Cc1c(-c2cc3ccnc(OCC4CNC(=O)C4)c3n2CC2CC2)nn2cc(C(=O)N3CCC[C@@H](N)C3)ccc12` (single isomer, unassigned; isomer 2) [Example 619]: 40 nM; `Cc1c(-c2cc3ccc(-c4ccccc4C(N)=O)cc3n2CC2CC2)nn2cc(C(=O)N3C[C@H](N)C[C@@H](F)C3)ccc12` [Example 372, 2-(2-{6-[(3R,5R)-3-Amino-5-fluoropiperidine-1-carbonyl]-3-methylpyrazolo[1,5-a]pyridin-2-yl}-1-(cyclopropylmethyl)-1H-indol-6-yl)benzamide]: 190 nM. Regarding `COc1cc(C(=O)N2C[C@H](N)C[C@@H](F)C2)cn2nc(-c3cc4ccnc(OCCn5cncn5)c4n3CC3CC3)c(C)c12` [Example 592, (2-(7-(2-(1H-1,2,4-Triazol-1-yl)ethoxy)-1-(cyclopropylmethyl)-1H-pyrrolo[2,3-c]pyridin-2-yl)-4-methoxy-3-methylpyrazolo[1,5-a]pyridin-6-yl)((3R,5R)-3-amino-5-fluoropiperidin-1-yl)methanone], the IC50 amounted to 30 nM. Turning to `Cc1c(-c2cc3ccc(-c4ccc5c(c4)C(=O)NC5)nc3n2CC2CC2)oc2cc(C(=O)N3CC4CCC3[C@@H]4N)ccc12` (stereo partly drawn) [Example 166, 6-(2-(6-((7R)-7-Amino-2-azabicyclo[2.2.1]heptane-2-carbonyl)-3-methylbenzofuran-2-yl)-1-(cyclopropylmethyl)-1H-pyrrolo[2,3-b]pyridin-6-yl)isoindolin-1-one], the IC50 turned out to be 56 nM.
